From PubChem BioAssay AID463204 (Broad Institute, 2010)
Activity calls are given as the source filed them.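 How the source made its calls: active means AC50 no more than ten times the top concentration tested, that is within one log above it; inconclusive means flat curve fit with activity between 30% and 70%, or invalid poor fit; inactive means AC50 beyond ten times the top tested dose.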

Each molecule was assayed on S. cerevisiae Mot1-301 ts growth rescue, BacTiter-Glo ATP luminescence (assay: restored Mot1-301 yeast growth at 38.5C – whole organism, S. cerevisiae, Mot1-301 ts mutant, luminescence, dose retest, SUMOylation pathway inhibitor project, confirmation (AID 463204);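 further: growth at restrictive 38.5 degrees C of Mot1-301 OY566 strain; actives raise luminescence by restoring growth of the ts mutant at high temperature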).
With Cc1cc(C)n(CCOC(=O)C2C(C=C(Cl)Cl)C2(C)C)n1 (stereo not given) the AC50 was > 42 µM (inactive).
In the case of CC(C)COc1ccc(C(=O)Nc2ccc([N+](=O)[O-])cc2)cc1, the AC50 is reported as > 42 µM (inactive).
In the case of C/C=C/C(=O)OCC(=O)Nc1nc2ccc(C)cc2s1, the AC50 is reported as > 42 µM (inactive).
For CN1C2CCC1CC(OC(=O)c1ccc([N+](=O)[O-])cc1)C2 (stereo not given), the AC50 was > 42 µM (inactive).
O=C1OC(Cc2ccccn2)C(O)=C1C1=NCCCN1 (stereo not given) was tested, and the AC50 was > 42 µM (inactive).
With COc1ccccc1N1CCN(C(=O)c2ccc(N3CCCCS3(=O)=O)cc2)CC1 the AC50 was > 42 µM (inactive).
For Cc1cc2c3c(c1)C1(SCC(=O)N1c1ccc(F)cc1)C(=O)N3C(C)(C)CC2C (stereo not given), the AC50 was 6.97 µM.
For COc1ccc(C(=O)Sc2ccc(Cl)cc2)cc1OC, the AC50 was > 42 µM (inactive).
For CCN(C(=O)COC(=O)c1cc([N+](=O)[O-])ccc1N1CCOCC1)C1CCCCC1, the AC50 was > 42 µM (inactive).
For O=Cc1ccccc1OCCN1CCCC1=O, the AC50 was > 42 µM (inactive).
With NC(=S)N/N=C/c1cccc(O)c1O the AC50 was > 42 µM (inactive).
In the case of Cc1ccc(NC(=O)C(=O)NCC2CCCN2S(=O)(=O)c2cccs2)cc1 (stereo not given), the AC50 is reported as > 42 µM (inactive).
In the case of CN(c1ccccc1)S(=O)(=O)c1ccc(C(=O)NCC2CCCO2)cc1 (stereo not given), the AC50 is reported as > 21 µM (inactive).
With CCN1CSC(=S)N(Cc2ccc(OC)cc2)C1 the AC50 was 4.01 µM.
For Cc1cc(C)cc(-n2ncc3c2CCCC3NC(=O)c2cc(C)[nH]n2)c1 (stereo not given), the AC50 was > 42 µM (inactive).
CSc1nnc2c3cc(C)ccc3n(Cc3ccccc3)c2n1 was tested, and the AC50 was > 42 µM (inactive).
For CC1CCN(C(=O)c2[nH]cnc2C(=O)NCC(=O)OCc2ccccc2)CC1, the AC50 was > 42 µM (inactive).
COc1ccc(OC)c(-c2cc(C(=O)Nc3c(C)nn(Cc4ccccc4Cl)c3C)no2)c1 was tested, and the AC50 was > 42 µM (inactive).
In the case of C(=N\N1CCN(C2c3ccccc3-c3ccccc32)CC1)/c1ccncc1, the AC50 is reported as 13.8 µM.
Molecule COc1ccc(-c2nnc(SCC(C)C)o2)cc1 has an AC50 of 31.1 µM.
CN(Cc1ccc(C(C)(C)C)cc1)C(=O)c1ccc2c(=O)n3c(nc2c1)CCC3 was tested, and the AC50 was > 42 µM (inactive).
For O=S(=O)(Cc1ccccc1)NCc1ccccn1, the AC50 was > 42 µM (inactive).
With CCc1nc2ccc(C(=O)N3CCN(CC)CC3)cc2nc1CC the AC50 was > 42 µM (inactive).
With Cc1cc(C)nc(-n2nc(C)cc2NC(=O)CNCc2ccccc2)n1 the AC50 was > 42 µM (inactive).
For COc1ccc(NC(=O)CN(c2ccc(C(C)C)cc2)S(=O)(=O)c2c(C)noc2C)cc1OC, the AC50 was > 42 µM (inactive).
With CC1(C)C(C=C(Cl)Cl)C1C(=O)OCc1cccc(Oc2ccccc2)c1 (stereo not given) the AC50 was > 42 µM (inactive).
In the case of Cc1ccc(SCCNC(=O)CN2C(=O)c3ccccc3S2(=O)=O)cc1, the AC50 is reported as > 42 µM (inactive).
For O=C(/C(=N\Nc1ccc(Br)cc1)Sc1nnnn1-c1ccccc1)c1ccccc1, the AC50 was > 42 µM (inactive).
COC(=O)c1ccc(Cn2cc(Cl)cn2)cc1 was tested, and the AC50 was > 42 µM (inactive).
For Cc1cccc(NC(=S)NC(=O)/C=C/c2ccco2)c1, the AC50 was > 42 µM (inactive).
For COCCCN1C(=O)c2ccc(C(=O)Nc3ccc(OC)cc3OC)cc2C1=O, the AC50 was > 42 µM (inactive).
COc1ccc(NC(=O)Cn2nnc(C(=O)Nc3ccc(F)c(Cl)c3)c2N)cc1 was tested, and the AC50 was > 42 µM (inactive).
O=C(NCc1ccco1)C1CC(=O)N(c2ccc(Cl)cc2)C1 (stereo not given) was tested, and the AC50 was > 42 µM (inactive).
CN(Cc1ccccc1)c1ccc(S(=O)(=O)N2CCC(C(=O)O)CC2)cc1[N+](=O)[O-] was tested, and the AC50 was > 42 µM (inactive).
For CCN(CC)/C(=N\S(=O)(=O)c1ccc(F)cc1)c1ccccc1, the AC50 was > 21 µM (inactive).
COc1ccc(C(=O)Nc2ccccc2C(=O)NCCN2CCOCC2)cc1OC was tested, and the AC50 was > 42 µM (inactive).
With COc1ccc(C2C(C(=O)Nc3cc(OC)c(OC)c(OC)c3)c3ccccc3C(=O)N2C)cc1 (stereo not given) the AC50 was > 42 µM (inactive).
O=C1Nc2ccccc2/C1=C/c1ccc([N+](=O)[O-])cc1 was tested, and the AC50 was > 42 µM (inactive).
COc1cc2c(=O)n(CCC(=O)NCC3CCCO3)c(=O)n(CC(=O)Nc3ccccc3C)c2cc1OC (stereo not given) was tested, and the AC50 was > 42 µM (inactive).
COC(=O)CSc1ccc(S(=O)(=O)N2CCCCCC2)cc1[N+](=O)[O-] was tested, and the AC50 was > 42 µM (inactive).
O=C(O)c1cn(Cc2ccccn2)c(=O)c2ccccc12 was tested, and the AC50 was > 42 µM (inactive).
With CCOc1cc(-c2ccccc2)nc(N)n1 the AC50 was > 42 µM (inactive).
With CCCCN(C/C=C/c1ccccc1OC)Cc1ccccc1 the AC50 was > 42 µM (inactive).
For Cc1cccc(-[n+]2c(-c3cccc(Br)c3)[nH]c3nc4ccccc4nc32)c1, the AC50 was > 42 µM (inactive).
With CS(=O)(=O)C1=NSC2=NC(=O)/C(=C\c3ccc(OS(=O)(=O)c4ccccc4)cc3)C(=N)N21 the AC50 was > 42 µM (inactive).
With O=C(CCCCCn1c(=O)[nH]c2ccsc2c1=O)NCc1ccc(F)cc1 the AC50 was > 42 µM (inactive).
Molecule O=C(Nc1cccc(N=Cc2cc(Br)cc(Br)c2O)c1)c1ccco1 has an AC50 of 2.81 µM.
Cc1ccc(C)c(NC(=S)NC(=O)c2cncc(Br)c2)c1 was tested, and the AC50 was > 42 µM (inactive).
For CC1(C)C2CC[C@]3(C)C(CC=C4[C@@H]5C[C@@](C)(CO)[C@@H](O)C[C@]56C[C@@H](OC6=O)[C@]43C)[C@@]2(C)CC[C@@H]1O (stereo not given in full), the AC50 was > 42 µM (inactive).
Oc1ccccc1-c1cc(C(F)(F)C(F)F)[nH]n1 was tested, and the AC50 was > 42 µM (inactive).
For O=c1c2c(ncn1Cc1ccccc1)nc1n2CCC1, the AC50 was > 42 µM (inactive).
For CCN(CC)C(=O)Cn1c(=O)n(CCCC(=O)NCc2ccccc2)c(=O)c2sccc21, the AC50 was > 42 µM (inactive).
With CCN1C(=NCCCCO)N[C@@H](c2cccc(C(F)(F)F)c2)C(C(=O)OC)=C1C the AC50 was > 42 µM (inactive).
With COC(=O)[C@@]12CCCCN1[C@H](c1ccc(-c3ccc(C(C)=O)cc3)cc1)[C@@H]1C(=O)N(C)C(=O)[C@@H]12 the AC50 was > 42 µM (inactive).
With O=S(=O)(O)c1ccc(N=NNc2ccc(Br)cc2)cc1 the AC50 was > 42 µM (inactive).
For Cc1ccc(C(=O)NC(Cc2c[nH]c3ccccc23)C(=O)O)o1 (stereo not given), the AC50 was > 42 µM (inactive).
In the case of Cc1ccc(C)n1-c1ccc(N(C)C)cc1, the AC50 is reported as > 42 µM (inactive).
In the case of O=C(Nc1ccc(OC(F)(F)F)cc1)c1ccc2ccccc2n1, the AC50 is reported as > 42 µM (inactive).
COC(=O)[C@@H](NC(=O)Nc1ccc(S(N)(=O)=O)cc1)C(C)C was tested, and the AC50 was > 42 µM (inactive).
In the case of COc1ccc(NC(=O)c2cc(C)no2)cc1Cl, the AC50 is reported as > 42 µM (inactive).
With CN(C)CCNC(=O)c1onc(CSc2ccc(F)c(F)c2)c1C(=O)NCCN(C)C the AC50 was > 42 µM (inactive).
Cc1ccc(N(CC(=O)NCCc2ccc(Cl)cc2)S(=O)(=O)c2c(C)noc2C)cc1 was tested, and the AC50 was > 42 µM (inactive).
With CCOC(=O)c1sc(NC(=O)C(CC)OC(=O)c2ccco2)nc1C (stereo not given) the AC50 was > 42 µM (inactive).
In the case of Cc1ccc(S(=O)(=O)N2[C@@H](c3ccccc3F)C(C(=O)O)=CC[C@H]2c2ccc3c(c2)OCO3)cc1, the AC50 is reported as > 42 µM (inactive).
In the case of COc1ccc(CCN2CC(C(=O)N(C)CC(=O)Nc3cccc(F)c3)CC2=O)cc1OC (stereo not given), the AC50 is reported as > 42 µM (inactive).
In the case of CC(Oc1ccc([N+](=O)[O-])cc1)C(=O)NCCCN1CCOCC1 (stereo not given), the AC50 is reported as > 42 µM (inactive).
With O=C(Nc1ccc([N+](=O)[O-])cn1)C1CC1 the AC50 was > 42 µM (inactive).
With O=C(O)C1CCCCC1C(=O)Nc1ccc(S(=O)(=O)N2CCCC2)cc1 (stereo not given) the AC50 was > 42 µM (inactive).
Cc1ccccc1C(=O)NNC(=S)Nc1cccc(C(F)(F)F)c1 was tested, and the AC50 was > 42 µM (inactive).
Clc1ccccc1-c1ccc2ncnc(NCc3cccs3)c2c1 was tested, and the AC50 was 37 µM.
